From a melting point compilation (Tetko et al.; mined from patent text by program, amines drawn as free bases though some values may be those of a salt)

| Structure (SMILES) | melting point [°C] |
| --- | --- |
| Cc1cc(-c2c(-c3ccccc3)nc3ccc(N4CCC5(CCCNC5)CC4)nn23)ccn1 | 175 to 179 |
| Cc1c(Cl)ccc2cc(C(F)(F)F)c(C(F)(F)F)nc12 | 70 to 73 |
| CC(C)OCc1cnc2c(N)cccc2c1Cl | 94 to 95 |
| COc1ccc(CCCS(=O)(=O)c2ccc(S(N)(=O)=O)s2)cc1 | 136 to 138 |
| CCc1cc(=O)c2c([nH]1)CCCC2 | 133 to 137 |
| NC(c1ccccc1)C12CC(CN1)C2 (stereo not drawn) | 46.5 to 47 |
| CNS(=O)(=O)c1ccc(Oc2ccc(N)cc2)cc1 | 121 to 122 |
| Cc1cc(C#N)ccc1-c1ccc(O)cc1 | 136 to 138 |
| CC(CO)Oc1ccc(CNc2ccc(Cl)cc2)cc1 (stereo not drawn) | 81 to 83 |
| CC(C)(C)OC(=O)N1CCN(c2cccc(Cl)c2/C=N/NS(=O)(=O)c2ccccc2)CC1 | 162 to 165 |
| CC(C)(C)NS(=O)(=O)c1ccccc1 | 77 to 78 |
| O=C(O)C1C=COc2cc(Cl)c(Cl)cc21 (stereo not drawn) | 114 to 117 |
| CC1=NNC(=O)N(N)C1 | 117 to 119 |
| Nc1cccc2c(Br)cccc12 | 65 to 66 |
| CC(C)n1nnc2c(NCc3ccccc3O)nc(N[C@H]3CC[C@H](N)CC3)nc21 | 120 to 123 |
| CCCCCCCOC(=S)SC(Cn1ccnc1)c1ccc(Cl)cc1Cl (stereo not drawn) | 107 to 113 |
| CSC(c1ccccc1)S(=O)c1ccccc1 (stereo not drawn) | 104 to 105 |
| CN1C(=O)CCCc2cc(Nc3ncc(Cl)c(Nc4ccccc4C(=O)NCCO)n3)ccc21 | 190 to 194 |
| CCOC(=O)c1c(C(F)(F)F)nc(C(F)F)c(C(=O)OC)c1NCC(F)(F)F | 64 to 66 |
| CCOC(=O)c1cn(Cc2ccccc2)nc1OCc1cccc(OCc2nc(-c3ccco3)oc2C)c1 | 92 to 93 |

| Structure (SMILES) | melting point [°C] |
| --- | --- |
| O=C(O)CCCc1ccc(NS(=O)(=O)c2cccc(C(F)(F)F)c2)cn1 | 157 to 159 |
| Cc1ccc2ccccc2c1C(=O)/C=C/c1ncn(C(c2ccccc2)(c2ccccc2)c2ccccc2)c1C | 222 to 224 |
| O=CN(O)C(CC1CCS(=O)(=O)CC1)CS(=O)(=O)c1ccc(Oc2ccc(OC(F)(F)F)cc2)cc1 (stereo not drawn) | 143 to 144 |
| CCCOc1ncc(I)cc1-c1nc2c(CC)n(Cc3ccccn3)nc2c(=O)[nH]1 | 229 to 234 |
| NS(=O)(=O)C1(c2cnn(CC(F)=C(F)F)c(=O)c2-c2ccc(F)cc2)C=CC=CC1 (stereo not drawn) | 173 to 175 |
| O=C(Nc1cc2ncc(CN3CCCC3)cc2cc1F)c1ccc(-c2ccc(C(F)(F)F)cc2)cc1 | 209 to 212 |
| O=C(O)c1ccc(N2C(=O)C3C4C=CC(C4)C3C2=O)cc1 (stereo not drawn) | 224 to 228 |
| CC(=O)OCCCNc1cc(C)nc2cn[nH]c12 | 115 to 119 |
| Oc1ccnc(OC(F)F)c1 | 88.6 to 89.8 |
| COC(=O)N=P(c1ccccc1)(c1ccccc1)c1ccccc1 | 138 to 139 |
| COc1cccc(CNc2ncnc3c2sc2nc(N4CCSCC4)c4c(c23)CC(C)(C)CC4)c1OC | 112 to 114 |
| O=C(O)CCC(=O)N1CCCc2cc(S(=O)(=O)N3CCN(c4cccc(Cl)c4)CC3)ccc21 | 135 to 136 |
| COc1ccc(S(N)(=O)=O)cc1C(O)C(C)N=[N+]=[N-] (stereo not drawn) | 109 to 110 |
| CC(=C1SCSCS1)c1ccc(OCCCN2CCOCC2)cc1 | 95 to 98 |
| COc1ccc(-n2c(SC)nc3cc(OC)cc(OC)c3c2=O)cc1 | 212 to 215 |
| O=C(C#Cc1ccc(-c2ccc(Cl)cc2)cn1)Nc1ccc(CN2CCC(O)CC2)cc1 | 186 to 190 |
| Cc1cc2c(Oc3cccc(C(F)(F)F)c3)nc(CCC(F)(F)F)nc2s1 | 85 |
| Cc1nnc(-c2ccc3occ(-c4cc(F)ccc4Cl)c3c2)o1 | 130 to 131 |
| N=C(CF)Nc1cccc(C(N)=O)c1 | 219 to 220 |
| CCOC1(C(Cl)(Cl)Cl)NC(=O)C(=O)N1 | 189 to 201 |

| Structure (SMILES) | melting point [°C] |
| --- | --- |
| COc1nc(OC)c(C(C)C)c(C(C#N)c2cc(Cl)cc(Cl)c2)n1 (stereo not drawn) | 135 to 136 |
| O=C1CCC(=O)N1Nc1c(Cl)cc(Cl)cc1Cl | 114 to 115 |
| O=C(O)C(Cl)=C(Cl)C(=O)N(Cc1ccco1)Cc1ccco1 | 149 |
| CN(CCS(C)(=O)=O)C1CCN(S(=O)(=O)c2ccc(Nc3nccc(-c4ccc(F)cc4)n3)cc2)CC1 | 166 |
| O=CC1CC1(c1ccccc1)c1ccccc1 (stereo not drawn) | 71 to 73 |
| Cc1nnc(CNC(=O)[C@H](Cc2ccccc2)NC(=O)OCc2ccccc2)n1-c1ccc(Cl)cc1C(=O)c1ccccc1 | 84 to 88 |
| O=C(COc1ccc(Cl)c(Cl)c1)N1CCC2(CC1)Cn1cc([N+](=O)[O-])nc1O2 | 218 to 220 |
| O=C(NCc1ccc2c(c1)OCO2)c1ccccc1 | 115 to 116 |
| CCOCCOc1ccc(OCC(O)CNCCNC(=O)N2CCOCC2)cc1 (stereo not drawn) | 75 to 77 |
| COc1cccc(CNC(=O)[C@@H]2CCCN(c3cccc4c3C(=O)N(Cc3ccncc3)C4=O)C2)c1OC | 199 to 200 |
| CCc1c[nH]c(C2Cc3ccccc3N2C(=O)Nc2ccccc2[N+](=O)[O-])n1 (stereo not drawn) | 208 to 209 |
| CCc1[nH]n(C2CCCC2)c2nc(-c3cccc(OCC(=O)N4CCOCC4)c3)nc(=O)c1-2 | 212 to 213 |
| CCCN(Cc1cccc(-c2noc(C)n2)c1)C(=O)Cc1ccc(-c2ccccc2S(=O)(=O)NC(C)(C)C)cc1 | 132 to 133 |
| Cc1ccc(-c2ccccc2-c2n[nH]c(C(c3ccccc3)(c3ccccc3)c3ccccc3)n2)cc1 | 120 to 122 |
| Cn1c(=O)cc(-c2nc(-c3ccccc3)cs2)c2cc(C(c3ccc(Cl)cc3)c3cnc(-c4ccccc4)[nH]3)ccc21 (stereo not drawn) | 190 |
| O=C(O)c1ccc(-c2nc(-c3ccc(C(F)(F)F)cc3)cs2)cc1 | 164 to 165 |
| O=C(CP(=O)(O)O)NC12CC3CC(CC(C3)C1)C2 | 190 to 194 |
| Cc1[nH]n(C2CCC2)c2nc(-c3ccncc3)nc(=O)c1-2 | 289 to 290 |
| O=C(O)CCCNC(=O)CC1=C(n2nc(-c3c(-c4ccccc4)nn4ccccc34)ccc2=O)CCCC1 | 92.5 to 93 |
| CCN1C(=O)C(C)(C)C(=O)N(C)c2cc(CN(CCn3ccc4oc(C)cc4c3=O)Cc3cnccc3Cl)ccc21 | 114 to 118 |

The remaining lines, values ahead:

| melting point [°C] | Structure (SMILES) |
| --- | --- |
| 197 to 198 | CC(C)(O)Cn1cnc2c(N)nc3ccc(Br)cc3c21 |
| 160 to 162 | CC(C)(C)N(NC(=O)c1ccco1)C(=O)c1ccccc1 |
| 217 to 221 | COCCOc1cc2ncnc(Nc3cc(OC)c(Br)cc3OC)c2cc1OC |
| 110 to 112 | CCCCNC(=O)Oc1c(C)cc(Oc2ccc(C)cc2)cc1C |
| 102 to 103 | C=C(C(=O)c1ccc(C(=O)OC)cc1)c1cc(OC)c(OC)c(-c2cccs2)c1 |
| 195 | COc1cccc(-c2cccc(OC3SCC(OC(C)=O)C(OC(C)=O)C3OC(C)=O)c2)n1 (stereo not drawn) |
| 169 to 171 | CCc1cc(OCC(=O)O)c(C)cc1SCc1sc(-c2ccc(C(F)(F)F)cc2)nc1C |
| 253 to 255 | O=C(O)C=Cc1ccc(CCNC(=O)c2ccc(Cl)cc2)cc1 |
| 147 to 149 | COc1ccc(-c2cc3nc(CNCC(C)O)c4ccccc4c3nn2)cc1 (stereo not drawn) |
| 140 to 142 | O=C(c1ccc([N+](=O)[O-])cc1)N1CCCCc2sc(Cl)c(Cl)c21 |
| 152 to 154 | CC(Oc1ccc(Oc2ncc(Cl)cc2N)cc1)C(=O)O (stereo not drawn) |
| 166 to 167 | COc1cc(OC)cc(C(=O)N2CCN(C(=O)C3=Cc4cc(OC)c(OC)cc4CC3)CC2)c1 |
| 168 to 170 | COCCc1nc2c(N)nc3ccccc3c2n1CC(C)C |
| 101 to 103 | CCOC(=O)c1cc2nc(C)oc2nc1C(=O)OCC |
| 157 to 158 | C=CCc1c(OCCCOc2ccc(C(C)=O)c(O)c2CCC)ccc2oc(C(=O)O)cc12 |
| 178 to 180 | Nc1sccc1C(=O)c1ccc(Cl)cc1 |
| 121 to 122 | CCOC(=O)c1nnc(-c2ccccc2)cc1-c1cccc([N+](=O)[O-])c1 |
| 132 to 134 | COc1ccc(C(=O)Nc2cccc(C(C)(C)CNC(C)=O)c2)cc1OC |
| 185 | O=C(NC(=O)c1ccccc1Cl)Nc1cc(C(F)(F)F)c(Cl)cc1Br |

| melting point [°C] | Structure (SMILES) |
| --- | --- |
| 132 to 134 | CC(=O)Oc1ccc(-c2ccc(CO)cc2S(=O)CC[Si](C)(C)C)cc1C (stereo not drawn) |
| 163 to 166 | COc1ccc(C=Cc2ccc(O)c(OC)c2)cc1 |
| 133 to 135 | CCOC(=O)C(=O)Nc1cccc(N(C)C)c1C(N)=O |
| 186 | CC(=O)NC[C@H]1CN(c2ccc(N3CCSCC3)c(F)c2)C(=O)O1 |
| > 250 | COc1ccc(NC(=O)c2c(Cl)cccc2Cl)c2nccc(NNC(C)=O)c12 |
| 269 to 270 | O=C(O)c1cnc(NC(=O)C(CC2CCCC2)c2ccc(Cl)c(Cl)c2)s1 (stereo not drawn) |
| 111 to 114 | CCCc1c(OCC(O)CNc2cccc(N)c2C#N)ccc(C(C)=O)c1O (stereo not drawn) |
| 54 to 56 | CCOC(=O)CC(O)c1ccc([N+](=O)[O-])c(OC)c1 (stereo not drawn) |
| 60 to 65 | COc1ccc2c(c1)c(CC(=O)OCCNC(=O)C1=CN(C)C=CC1)c(C)n2C(=O)c1ccc(Cl)cc1 |
| 162 to 166 | Cc1c(CN2CCc3c(c4cccc(F)c4n3C)C2=O)ncn1S(=O)(=O)N(C)C |
| 125 to 127 | CC(Cn1c2ccccc2c2ccccc21)OS(C)(=O)=O (stereo not drawn) |
| 150 to 151 | Cc1ccc2c(n1)Oc1ccc(C(C)C(=O)OCC(=O)N(C)C)cc1C2 (stereo not drawn) |
| 154 to 156 | COc1ccc([C@@H]2Sc3cc(Cc4ccc(F)cc4)ccc3N(CCN(C)C)C(=O)[C@@H]2OC(C)=O)cc1 |
| 172 | CC(C)N(C(=O)C(Cc1ccc(C#N)cc1)NC(=O)OC(C)(C)C)C(C)C (stereo not drawn) |
| 118 | COC(=O)CNC(=O)c1ccc2ccccc2c1 |
| 70 | CCCC(=NOCC)C1=C(O)CC(c2cc3ccccc3o2)CC1=O (stereo not drawn) |
| 156 to 171 | CC(=O)Nc1ccc(C(=O)NC(=O)N2CCC(Cc3ccc(F)cc3)CC2)cc1 |
| 132 to 134 | COc1ccc(C2=NN(C(=O)c3cccnc3)CC2)cc1 |
| 196 to 198 | COC(=O)c1cc2c3cc(C(C)=O)ccc3n(C)c2s1 |
